Where a SMILES comes first, the peptide text is derived from it. Bridges are numbered along the chain shown (N, C = ends). The star is where a group is joined. MeO(CH2CH2O)23CH2CH2CO = COCCOCCOCCOCCOCCOCCOCCOCCOCCOCCOCCOCCOCCOCCOCCOCCOCCOCCOCCOCCOCCOCCOCCOCCC(=O)*
Experiments:
cGMP = assay: plasma cGMP concentration in rats; assay type: in vivo, rat
Procedure: Recombinant wild-type CNP22, CNP37 and PEO24-GANRR-CNP22 (K4R) (SEQ ID NO: 36) were evaluated.
Plasma cGMP concentrations in the sample at 5, 30, 60 and 90 minutes after i.v. dosing, or at 5, 30, 60, 120 and 180 minutes after s.c. dosing, were determined by the competitive RIA using anti-cGMP monoclonal antibody. Standard samples were prepared. 100 uL of the assay samples (standard solutions for the calibration curve or the diluted plasma samples for cGMP determination) were transferred to test tubes. Then 100 uL of anti-cGMP monoclonal antibody solution and 100 uL of ^125I-labeled succinyl cGMP tyrosine methyl ester solution were added to the tubes, respectively. All tubes were kept at 4° C. overnight. After the addition of 500 uL dextran charcoal solution, the tubes were vortexed and then placed on ice for 10 minutes. The reaction mixture was centrifuged and 500 uL of the supernatant was transferred from each sample to a new test tube. The amount of radiation (gamma line) in the supernatant was measured by a gamma-counter.

FGFR3^ach mice = assay: efficacy in mouse model of mild achondroplasia; assay type: in vivo; conditions: 200 nmol/kg s.c. once daily for 5 weeks
Description: To assess the biodistribution of CNP37 in the bone growth plate in vivo and the in vivo effects of CNP37 on the growth plate (including total growth plate thickness, hypertrophic zone thickness, and cellularity of proliferating zone), bone samples were obtained from FGFR3^ach mice treated with vehicle or CNP37 as described above. For biodistribution and in vivo effects studies, tibias were fixed and stored in 70% ethanol. For immunohistochemistry, the samples were decalcified in 5% formic acid for 2 days, dehydrated and embedded in paraffin. Bones were sectioned at 5 um (microns), which were then deparaffinized, rehydrated, and used for CNP immunohistochemistry as described above. For cellular image analysis, bones were sectioned at 5 (microns), and then deparaffinized, rehydrated, and stained with Alcian Blue for 30 minutes (pH 2.5; MasterTech) and Hematoxylin &
Eosin for 30 seconds. Stained sections were visualized and photographed by brightfield microscopy. Thicknesses of the growth plate and the proliferating and hypertrophic zones were measured using ImageJ software.
The efficacy of CNP variants in enhancing growth and correcting achondroplasia was tested in a mouse model of mild achondroplasia, using a strain of transgenic mice expressing a human FGFR-3 gene having a G380R mutation (FGFR3^ach) (Wang et al., Proc. Natl. Acad. Sci. USA, 96(8): 4455-4460 (1999); Naski et al., Development USA, 125: 4977-4988 (1998); U.S. Pat. Nos. 6,265,632 and 6,136,040).
At 3 weeks of age, FGFR3^ach mice and their wild-type littermates were anesthetized to have lateral whole-body X-ray images taken by Faxitron, and randomized by body weight into the following treatment groups (n=8/group): (1) wild-type/vehicle, (2) FGFR3^ach/vehicle, (3) FGFR3^ach/CNP37, and (4) FGFR3^ach/PEO24-GANRR-CNP22(K4R) (SEQ ID NO: 36). The mice received once daily subcutaneous (s.c.) administration of designated test article (vehicle or 200 nmol/kg CNP variant) for 5 weeks. Satellite groups (n=3) were used to confirm exposure of each test article following a single subcutaneous administration on Day 1. Wild-type male FVB mice that received daily s.c. injection of vehicle for 5 weeks were used as a control for normal growth.
X-ray measurements at baseline and at the end of the study were performed to determine change in the head length, area of the skull, and the external auditory meatus (EAM, the ear canal running from the outer ear to the middle ear). Body weight and tail length were measured at least once weekly, using a digital caliper to measure tail length, and body (nasoanal) length was measured after 5 weeks of treatment. Bone (tibia, femur, ulna and humerus) lengths were measured using a digital caliper at necropsy.
On Day 37, all mice were sacrificed by terminal anesthesia and whole-animal photographs and X-ray images by Faxitron were taken. Left and right tibia, femur, humerus, and ulna were collected and measured using a digital caliper. The left portions of each bone were processed for histology, and the right portions were snap-frozen for archival. Samples obtained from the bones were used to evaluate the effects of NP variants on endochondral bone growth.

CC[C@H](C)[C@@H]1NC(=O)[C@H](CCCNC(=N)N)NC(=O)[C@H](CC(=O)O)NC(=O)[C@H](CC(C)C)NC(=O)[C@H](CCCCN)NC(=O)[C@H](CC(C)C)NC(=O)CNC(=O)[C@H](Cc2ccccc2)NC(=O)[C@@H](NC(=O)CNC(=O)[C@H](CCCNC(=N)N)NC(=O)[C@H](CO)NC(=O)[C@H](CC(C)C)NC(=O)CNC(=O)[C@H](CCCNC(=N)N)NC(=O)[C@H](CCCNC(=N)N)NC(=O)[C@H](CC(N)=O)NC(=O)[C@H](C)NC(=O)CNC(=O)CCOCCOCCOCCOCCOCCOCCOCCOCCOCCOCCOCCOCCOCCOCCOCCOCCOCCOCCOCCOCCOCCOCCOCCOC)CSSC[C@@H](C(=O)O)NC(=O)CNC(=O)[C@H](CC(C)C)NC(=O)CNC(=O)[C@H](CO)NC(=O)[C@H](CCSC)NC(=O)[C@H](CO)NC(=O)CNC1=O [PEO24-GANRR-CNP22(K4R)] ({MeO(CH2CH2O)23CH2CH2CO}-GANRRGLSRGCFGLKLDRIGSMSGLGC-OH; disulfide 11-27)
plasma levels of cGMP compared with CNP22 (cGMP; i.v. 20 nmol/kg, at 30, 60 and 90 minutes): much higher plasma levels of cGMP | plasma concentrations of cGMP compared with CNP22 (cGMP; s.c. 50 nmol/kg): substantially higher plasma concentrations of cGMP | Femur length, relative to vehicle-treated FGFR3^ach mice = 100% (FGFR3^ach mice): 100% | Humerus length, relative to vehicle-treated FGFR3^ach mice = 100% (FGFR3^ach mice): 100% | Naso-Anal length, relative to vehicle-treated FGFR3^ach mice = 100% (FGFR3^ach mice): 99% | Tail length, relative to vehicle-treated FGFR3^ach mice = 100% (FGFR3^ach mice): 100% | Tibia length, relative to vehicle-treated FGFR3^ach mice = 100% (FGFR3^ach mice): 102% | Ulna length, relative to vehicle-treated FGFR3^ach mice = 100% (FGFR3^ach mice): 101%
